Assay results reported in patent US11638425B2, “Agent for inducing stress tolerance in plants” (Menicon Co. Ltd., priority 2017, dated 2023).

Key:
[1] = tested on: HSP17.6C-C1 of Arabidopsis thaliana; test: HSP expression test (HSP17.6C-C1 upstream region linked to GUS, 4-MU production); format: in vivo; set-up: key: 4-MU per plant divided by 4-MU of 50 μM geldanamycin positive control; conditions: soaked 6 hours at 22° C., positive control 50 μM geldanamycin
Protocol: First, a construct linked to β-glucuronidase (GUS) gene was introduced to 1 kb upstream of HSP17.6C-C1 of Arabidopsis thaliana (the family Brassicaceae) to prepare a mutant. Each naphthoquinone compound (shown in Table 1) dissolved in DMSO was diluted to 1 μM, 10 μM, 100 μM, or 1000 μM (final concentration) with deionized water to prepare a test solution of each example (final concentration of DMSO: 1.0% by volume). A 50 μM geldanamycin solution was similarly prepared as a positive control.
Next, two individuals of 7-day-old Arabidopsis thaliana mutants grown in a ⅕ MS medium were soaked in 300 μL of the test solution of each example or the positive control at 22° C. for 6 hours. The Arabidopsis thaliana was washed with deionized water, then soaked in 200 μL of a 4-methylumbelliferyl-β-D-glucuronide hydrate solution containing a surfactant, and incubated at 22° C. for 16 hours in the dark. The fluorescence intensity of the supernatant was measured, and the amount of 4-methylumbelliferone (4-MU) production per plant was calculated. The calculated value of 4-MU was divided by the value of 4-MU of the positive control to calculate a ratio vs. positive control. A higher numerical value means that HSP was expressed at a larger level.
Each shikonin compound or alkannin compound (shown in Table 2) dissolved in DMSO was diluted to 1 μM, 10 μM, 100 μM, or 1000 μM (final concentration) with deionized water to prepare a test solution of each example (final concentration of DMSO: 1.0% by volume). A 50 μM geldanamycin solution was similarly prepared as a positive control. The other test procedures were performed in the same way as in Test Example 1. The calculated value of 4-MU was divided by the value of 4-MU of the positive control to calculate a ratio vs. positive control. […]

Arabidopsis thaliana = test: Heat tolerance induction test based on chlorophyll concentration; format: in vivo; conditions: 50 μM in medium; heat-treated at 44° C. for 1 hour; 3 days culture after
Protocol: A ⅕ MS medium was prepared in a 6-well plate, and filter paper was placed thereon. 12 individuals of wild-type Arabidopsis thaliana were seeded per well and grown at 22° C. for 7 days in a plant incubator under 16-hour light and 8-hour dark conditions. Next, the naphthoquinone compound of each example (shown in Table 3) dissolved in DMSO was added to a ⅕ MS medium, and each medium (final concentration: 50 μM) was prepared in a 6-well plate (final concentration of DMSO: 1.0% by volume). A medium containing 1.0% by volume of DMSO was used as a control.
The Arabidopsis thaliana grown for 7 days in the 6-well plate was transplanted, together with the filter paper, to the medium containing the compound and cultured for 1 day in a plant incubator. The plate was placed in a plastic bag and heat-treated at 44° C. for 1 hour in a water bath. After the heat treatment, culture was performed for 3 days in a plant incubator. The leaves of 4 Arabidopsis thaliana individuals were cut out, and chlorophyll was extracted with 300 μL of ethanol. The absorbance of each extract was measured at 649 nm and 665 nm, and the chlorophyll concentration (mg/L) was calculated. A higher chlorophyll concentration means that heat tolerance is better.
The shikonin compound of each example (shown in Table 4) dissolved in DMSO was added to a ⅕ MS medium, and each medium (final concentration: 50 μM) was prepared in a 6-well plate (final concentration of DMSO: 1.0% by volume). A medium containing 1% by volume of DMSO was used as a control. The other test procedures were performed in the same way as in Test Example 3.
The Lithospermi radix extract used was Shikonix Liquid (BG) (trade name, manufactured by Ichimaru Pharcos Co., Ltd.) containing a Lithospermum erythrorhizon root extract. The Shikonix Liquid contained, as major components, shikonin compounds such as acetylshikonin, β-hydroxyisovalerylshikonin, and isobutyrylshikonin. The Shikonix Liquid also contained, as additional minor components, α-methyl-n-butylshikonin, β,β-dimethylacrylshikonin, isovalerylshikonin, and shikonin.
The Shikonix Liquid (BG) was added at a dilution ratio of 150-fold to a ⅕ MS medium. The same amount of water was added as a control. ThermoZyme (manufactured by Fujimikogyo Co., Ltd.) was added at a dilution ratio of 150-fold as a positive control (Reference Example). The other test procedures were performed in the same way as in Test Example 3.

sprouted alfalfa = test: Spindly growth suppression test of seedling; format: in vivo, Medicago sativa; conditions: 50 μL sprayed per individual, 10 days at 25° C.
Protocol: A spindly growth suppression test was conducted using sprouted alfalfa as a seedling and naphthoquinone compounds as quinone compounds. First, just-sprouted alfalfa (Medicago sativa of the family Leguminosae) was transplanted to a plastic cup containing vermiculite. Each naphthoquinone compound (shown in Table 5) dissolved in DMSO was diluted to 100 μM or 1000 μM (final concentration) with deionized water to prepare a test solution of each example (final concentration of DMSO: 1.0% by volume). An aqueous solution containing 1.0% by volume of DMSO was used as a test solution of a control. 50 μL of the test solution was sprayed per alfalfa individual. Then, cultivation was performed for 10 days in an incubator of 25° C., followed by hypocotyl length measurement.

maize [2] = test: Drought tolerance improvement test of maize; format: in vivo; conditions: 10 μM, 2 mL/cell; 19 days without water, counted 5 days after water addition
Protocol: Four parts each involving 9 cells (3×3) were cut out of a 72-cell tray. Seedling soil was placed therein, and water was added. 4 seeds of maize were seeded per cell. The temperature was set to 20° C. using a plant growth chamber, followed by cultivation under 16-hour light and 8-hour dark conditions. After budding, each naphthoquinone compound dissolved in DMSO was diluted to 10 μM (final concentration) with deionized water to prepare a test solution of each example (final concentration of DMSO: 1.0% by volume). Each test solution was sprayed to leaf surface in one of the cell trays. The volume of the test solution sprayed was set to 2 mL/cell. The same volume of water was sprayed to the other cell tray and used as a control. After the spraying, cultivation was continued without the addition of water. 19 days after the spraying, water was added to the soil. 5 days after the water addition, the number of maize survivors was counted and divided by the initial number of growing plants to calculate a survival rate (%).

maize [3] = test: Salt tolerance improvement test of maize; format: in vivo; conditions: 10 μM, 2 mL/cell; 1.0% NaCl five times every two days; fresh weight
Protocol: (§1) Two parts each involving 9 cells (3×3) were cut out of a 72-cell tray. Seedling soil was placed therein, and water was added. 4 seeds of maize were seeded per cell. The temperature was set to 20° C. using a plant growth chamber, followed by cultivation under 16-hour light and 8-hour dark conditions. After budding, Shikonix Liquid (BG) (manufactured by Ichimaru Pharcos Co., Ltd.) was diluted 500-fold and sprayed as the Lithospermi radix extract to leaf surface in one of the cell trays. The volume of the Shikonix Liquid sprayed was set to 2 mL/cell. The same volume of water was sprayed to the other cell tray and used as a control. Two days later, a 1.0% NaCl solution was prepared and absorbed from the underside of each cell tray. The NaCl solution treatment was performed five times every two days. The above-ground parts were cut off, and their fresh weights were measured. An average value (g/plant) was calculated.
as §1, with “Four parts” for “Two parts”, “budding, each naphthoquinone compound dissolved in DMSO” for “budding, Shikonix Liquid (BG) (manufactured by Ichimaru Pharcos Co., Ltd.)”, “diluted to 10 μM (final concentration) with deionized water to prepare a test solution of each example (final concentration of DMSO: 1.0% by volume). Each test solution was” for “diluted 500-fold and”, “sprayed” for “sprayed as the Lithospermi radix extract”, “the test solution” for “the Shikonix Liquid”

Compound	Ratio of 4-MU amount vs. positive control ([1]; 1 μM)	Ratio of 4-MU amount vs. positive control ([1]; 10 μM)	Ratio of 4-MU amount vs. positive control ([1]; 100 μM)	Ratio of 4-MU amount vs. positive control ([1]; 1000 μM)	Chlorophyll concentration (Arabidopsis thaliana)	Hypocotyl length (sprouted alfalfa; 100 μM)	Hypocotyl length (sprouted alfalfa; 1000 μM)	Survival rate (maize [2])	Above-ground part weight (maize [3])
O=C1C(Cl)=C(Cl)C(=O)c2c(O)ccc(O)c21 [Example 7, 2,3-Dichloro-5,8-dihydroxy-1,4-naphthoquinone]	0.80	5.91	1.72	0.95	6.12 mg/L	18.1 mm	14.6 mm	88%	0.677 g/plant
O=C1C=CC(=O)c2c(O)ccc(O)c21 [Example 5, 5,8-Dihydroxy-1,4-naphthoquinone]	0.48	2.49	1.96	0.78	6.66 mg/L	14.6 mm	15.2 mm	92%	0.653 g/plant
